Measured values: PMC7150891, “Mertansine Inhibits mRNA Expression and Enzyme Activities of Cytochrome P450s and Uridine 5′-Diphospho-Glucuronosyltransferases in Human Hepatocytes and Liver Microsomes” (Pharmaceutics, 2020)
“Also recorded” adds a separate entry of the source. Like-named read-outs stand apart in the source and are kept apart here.

How the values were obtained:
UGT1A4 mRNA = UGT1A4 mRNA level in human hepatocytes after 48 h treatment (RT-PCR); conditions: for IC50: read-out: IC50, suppression of UGT1A4 mRNA expression, 1.25–2500 nM
CYP2C19 mRNA = CYP2C19 mRNA level in human hepatocytes after 48 h treatment (RT-PCR); conditions: plated cryopreserved human hepatocytes, IC50, suppression of CYP2C19 mRNA expression, 1.25–2500 nM
CYP2C9 mRNA = CYP2C9 mRNA level in human hepatocytes after 48 h treatment (RT-PCR); conditions: plated cryopreserved human hepatocytes, IC50, suppression of CYP2C9 mRNA expression, 1.25–2500 nM
UGT1A9 mRNA = UGT1A9 mRNA level in human hepatocytes after 48 h treatment (RT-PCR); conditions: plated cryopreserved human hepatocytes, IC50, suppression of UGT1A9 mRNA expression, 1.25–2500 nM
recombinant human CYP3A4 = system: recombinant human CYP3A4; design: method as in PMID 25048520, PMID 22752008; conditions: cited from earlier work
[1] = design: method as in PMID 25048520, PMID 22752008; conditions: up to 1 µM; cited from earlier work
[2] = rats, intravenous [3H]-mertansine 0.2 mg/kg, cited from earlier work
UGT1A6 = target: T1, UGT1A6 (Homo sapiens, UniProt P19224); test: Inhibition of UGT1A6-catalyzed N-acetylserotonin β-D-glucuronidation in ultrapooled human liver microsomes; type: in vitro ADME
T1 construct: ultrapooled human liver microsomes (0.2 mg/mL); from tissue; host or cells: human liver microsomes (ultrapooled)
Procedure: (§1) The inhibitory potential of mertansine on UGT1A1, UGT1A3, UGT1A4, UGT1A6, UGT1A9, and UGT2B7 activities was evaluated using liquid chromatography–tandem mass spectrometry (LC-MS/MS) with a cocktail of UGT substrates and ultrapooled human liver microsomes. Each incubation mixture was prepared to a final volume of 100 μL as follows: ultrapooled human liver microsomes (0.2 mg/mL), 5 mM UDPGA, 10 mM magnesium chloride, alamethicin (25 μg/mL), 50 mM Tris buffer (pH 7.4), various concentrations of mertansine in methanol (final concentrations of 0.01–50 μM), and the cocktail sets of UGT enzyme-specific substrates. Two cocktail sets were used: set A contained 0.5 μM SN-38 for UGT1A1, 2 μM chenodeoxycholic acid for UGT1A3, and 0.5 μM trifluoperazine for UGT1A4; and set B contained 1 μM N-acetylserotonin for UGT1A6, 0.2 μM mycophenolic acid for UGT1A9, and 1 μM naloxone for UGT2B7. The reactions were initiated by adding UDPGA and incubated in a shaking water bath for 60 min at 37 °C. Reactions were terminated by adding 50 μL of ice-cold acetonitrile containing internal standards (IS, propofol glucuronide for set A and meloxicam for set B). Incubation mixtures were centrifuged at 13,000 g for 8 min at 4 °C. Next, 50 μL of each supernatant of sets A and B was mixed, and aliquots (5 μL) were analyzed using LC-MS/MS. […]

UGT2B7 = target: T2, UGT2B7 (Homo sapiens, UniProt P16662); test: Inhibition of UGT2B7-catalyzed naloxone 3-β-D-glucuronidation in ultrapooled human liver microsomes; type: in vitro ADME
T2 construct: ultrapooled human liver microsomes (0.2 mg/mL); from tissue; host or cells: human liver microsomes (ultrapooled)
Procedure: as §1

[3] = human hepatocytes Lot 319, 48 h
[4] = human hepatocytes Lot 321, 48 h
[5] = human hepatocytes Lot 361, 48 h
[6] = Mean ± SD of three human hepatocyte lots, 48 h
[7] = human liver microsomes, mertansine at 50 µM

T2 sequence (P16662 24-529): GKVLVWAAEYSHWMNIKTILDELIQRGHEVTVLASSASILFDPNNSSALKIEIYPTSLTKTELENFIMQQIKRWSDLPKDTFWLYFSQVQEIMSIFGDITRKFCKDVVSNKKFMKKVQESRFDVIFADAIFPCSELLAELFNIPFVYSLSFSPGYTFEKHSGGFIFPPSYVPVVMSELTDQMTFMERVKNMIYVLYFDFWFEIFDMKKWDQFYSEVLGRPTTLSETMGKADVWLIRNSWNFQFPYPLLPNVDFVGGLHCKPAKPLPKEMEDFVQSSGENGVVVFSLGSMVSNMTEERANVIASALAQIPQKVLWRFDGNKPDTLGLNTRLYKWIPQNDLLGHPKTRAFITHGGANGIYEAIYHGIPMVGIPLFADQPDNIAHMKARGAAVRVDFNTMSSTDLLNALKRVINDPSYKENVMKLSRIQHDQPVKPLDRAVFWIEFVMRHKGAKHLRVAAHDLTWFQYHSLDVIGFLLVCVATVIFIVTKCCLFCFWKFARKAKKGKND
T1 sequence (P19224 27-532): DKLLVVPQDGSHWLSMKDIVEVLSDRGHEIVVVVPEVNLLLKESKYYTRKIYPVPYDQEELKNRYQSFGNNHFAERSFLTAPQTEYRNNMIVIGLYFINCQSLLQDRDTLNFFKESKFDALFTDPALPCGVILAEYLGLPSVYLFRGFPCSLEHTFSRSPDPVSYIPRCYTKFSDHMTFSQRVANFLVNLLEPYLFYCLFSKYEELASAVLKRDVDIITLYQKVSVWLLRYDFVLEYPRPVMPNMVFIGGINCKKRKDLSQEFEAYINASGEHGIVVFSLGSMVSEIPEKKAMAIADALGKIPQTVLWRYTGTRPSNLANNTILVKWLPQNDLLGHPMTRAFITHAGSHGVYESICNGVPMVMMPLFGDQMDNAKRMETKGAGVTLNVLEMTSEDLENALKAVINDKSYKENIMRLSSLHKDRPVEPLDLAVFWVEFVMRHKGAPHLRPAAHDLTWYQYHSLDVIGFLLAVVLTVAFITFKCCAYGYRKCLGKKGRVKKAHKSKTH

`COc1cc2cc(c1Cl)N(C)C(=O)CC(OC(=O)C(C)N(C)C(=O)CCS)C1(C)OC1C(C)C1CC(O)(NC(=O)O1)C(OC)C=CC=C(C)C2` (centres unmarked) [mertansine, Mertansine] gave an IC50 at 48 h (UGT1A4 mRNA; human) of over 2500 nM, an IC50 (UGT1A4 mRNA; [3]) of over 2500 nM and an IC50 (UGT1A4 mRNA; [4]) of over 2500 nM. For the same compound, the IC50 (UGT1A4 mRNA; [5]) was over 2500 nM, the IC50 at 48 h (CYP2C19 mRNA; [6]) was 540 ± 233 nM and the IC50 at 48 h (CYP2C19 mRNA; [3]) was 574 nM. It also gave an IC50 at 48 h (CYP2C19 mRNA; [4]) of 754 nM, an IC50 at 48 h (CYP2C19 mRNA; [5]) of 291 nM and an IC50 at 48 h (CYP2C9 mRNA; [6]) of 578 ± 452 nM. The IC50 at 48 h (CYP2C9 mRNA; [3]) was 788 nM, the IC50 at 48 h (CYP2C9 mRNA; [4]) was 888 nM and the IC50 at 48 h (CYP2C9 mRNA; [5]) was 59.6 nM. For the same compound, the IC50 at 48 h (UGT1A9 mRNA; [6]) was 54.1 ± 29.1 nM, the IC50 at 48 h (UGT1A9 mRNA; [3]) was 86.9 nM and the IC50 at 48 h (UGT1A9 mRNA; [4]) was 31.4 nM. For the same compound, the IC50 at 48 h (UGT1A9 mRNA; [5]) was 44.1 nM, the KI (inactivation) (recombinant human CYP3A4; recombinant human CYP3A4, irreversible inhibition, read-out: Ki, inactivation of midazolam 1′-hydroxylation) was 3400 nM and the “kinact, inactivation of midazolam 1′-hydroxylation” value (recombinant human CYP3A4; recombinant human CYP3A4) was 0.058 min⁻¹. For the same compound, the Induction potential [1] was “no induction potential”, the Tissue-to-blood radioactivity ratios ([2]; highly perfused organs, for 24 h) was 1~11 and the “Biliary excretion of dosed radioactivity” value ([2]; over 72 h) was ~ 46%. The “Dosed radioactivity recovered in urine” value ([2]; over 120 h) was 5%, the “Inhibition of UGT1A6 enzyme activity” value (UGT1A6; [7]) was “no inhibition; also recorded: negligibly inhibited” and the “IC50, N-acetylserotonin β-D-glucuronidation (UGT1A6)” value (UGT1A6; ultrapooled human liver microsomes, 1 µM N-acetylserotonin (cocktail)) was “No inhibition”. For the same compound, the “Inhibition of UGT2B7 enzyme activity” value (UGT2B7; [7]) was “no inhibition; also recorded: negligibly inhibited” and the “IC50, naloxone 3-β-D-glucuronidation (UGT2B7)” value (UGT2B7; ultrapooled human liver microsomes, 1 µM naloxone (cocktail)) was “No inhibition”.
